According to ChEMBL document CHEMBL5465560, “Selectivity Literature for EUbOPEN Chemogenomic Library” (2024):
Blank lines part the entries; values can stand above or below the molecule they belong to.

How the values were obtained:
[1] = biological target: Serine/threonine-protein kinase B-raf (Homo sapiens) (UniProt P15056); assay: (§1) Selectivity interaction (Kinase panel (Z-LYTE Assay)) EUB0001632a BRAF; settings: at 10 µM
[2] = test system: Serine/threonine-protein kinase B-raf (Homo sapiens), P15056 [V600E]; assay: as §1; settings: at 10 µM
Sequence of Serine/threonine-protein kinase B-raf (Homo sapiens), P15056 [V600E] (P15056 whole entry V600E): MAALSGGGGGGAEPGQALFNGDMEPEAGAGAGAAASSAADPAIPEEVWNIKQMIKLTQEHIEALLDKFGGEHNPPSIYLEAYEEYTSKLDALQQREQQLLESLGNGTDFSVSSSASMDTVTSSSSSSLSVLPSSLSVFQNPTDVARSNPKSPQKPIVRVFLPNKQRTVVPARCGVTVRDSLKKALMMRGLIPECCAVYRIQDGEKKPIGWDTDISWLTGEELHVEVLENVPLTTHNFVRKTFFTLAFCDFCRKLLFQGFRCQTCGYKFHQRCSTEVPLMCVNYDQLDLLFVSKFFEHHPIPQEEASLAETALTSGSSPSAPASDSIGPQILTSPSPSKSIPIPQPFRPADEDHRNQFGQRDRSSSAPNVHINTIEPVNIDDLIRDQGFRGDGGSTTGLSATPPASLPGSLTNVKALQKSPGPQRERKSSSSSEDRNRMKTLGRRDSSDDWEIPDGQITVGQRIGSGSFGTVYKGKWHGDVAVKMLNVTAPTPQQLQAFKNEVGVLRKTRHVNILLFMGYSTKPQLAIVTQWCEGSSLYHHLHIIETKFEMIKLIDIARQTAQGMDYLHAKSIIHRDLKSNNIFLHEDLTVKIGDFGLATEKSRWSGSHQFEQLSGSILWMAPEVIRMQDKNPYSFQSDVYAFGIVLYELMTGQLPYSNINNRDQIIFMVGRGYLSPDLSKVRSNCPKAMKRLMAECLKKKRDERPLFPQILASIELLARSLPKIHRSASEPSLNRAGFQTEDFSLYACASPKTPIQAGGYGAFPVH

[3] = biological target: Dual specificity protein kinase CLK1 (Homo sapiens, UniProt P49759); settings: at 10 µM
Sequence of Dual specificity protein kinase CLK1 (P49759 whole entry, looked up): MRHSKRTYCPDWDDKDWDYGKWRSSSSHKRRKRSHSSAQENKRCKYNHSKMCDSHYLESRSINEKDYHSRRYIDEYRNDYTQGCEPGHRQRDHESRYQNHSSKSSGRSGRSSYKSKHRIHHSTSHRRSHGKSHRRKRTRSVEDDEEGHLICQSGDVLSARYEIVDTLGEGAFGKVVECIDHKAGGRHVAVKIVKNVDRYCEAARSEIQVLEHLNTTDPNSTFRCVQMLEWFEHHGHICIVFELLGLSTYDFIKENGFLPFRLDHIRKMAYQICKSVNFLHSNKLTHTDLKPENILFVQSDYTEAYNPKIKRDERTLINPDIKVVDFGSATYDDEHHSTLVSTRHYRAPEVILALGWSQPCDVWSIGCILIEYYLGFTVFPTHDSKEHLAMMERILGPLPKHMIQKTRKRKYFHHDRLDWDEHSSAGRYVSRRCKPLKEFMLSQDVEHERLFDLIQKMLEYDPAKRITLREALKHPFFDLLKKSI

[4] = biological target: Cyclin-dependent kinase 7 (Homo sapiens, UniProt P50613); assay: Selectivity interaction (ActivX KiNativ screen (kinase selectivity in THP-1 cell lysates)) EUB0000639a CDK7; type: subcellular; settings: lysate, at 0.04 µM
Sequence of Cyclin-dependent kinase 7 (P50613 whole entry): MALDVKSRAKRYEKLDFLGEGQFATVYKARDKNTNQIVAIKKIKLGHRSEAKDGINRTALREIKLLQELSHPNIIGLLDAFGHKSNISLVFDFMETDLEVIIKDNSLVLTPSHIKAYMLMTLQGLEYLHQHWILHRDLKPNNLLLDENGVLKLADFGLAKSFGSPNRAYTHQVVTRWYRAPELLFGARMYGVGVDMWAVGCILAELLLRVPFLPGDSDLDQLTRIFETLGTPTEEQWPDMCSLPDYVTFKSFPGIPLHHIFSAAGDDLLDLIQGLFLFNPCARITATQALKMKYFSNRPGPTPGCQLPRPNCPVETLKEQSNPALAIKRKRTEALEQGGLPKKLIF

[5] = biological target: eIF-2-alpha kinase GCN2 (Homo sapiens) (UniProt Q9P2K8); assay: Selectivity interaction (ActivX KiNativ screen (kinase selectivity in THP-1 cell lysates)) EUB0000639a EIF2AK4; type: subcellular; settings: lysate, at 0.2 µM
[6] = biological target: Tyrosine-protein kinase Fgr (Homo sapiens) (UniProt P09769); assay: Selectivity interaction (KinomeScan (DiscoverX)) EUB0000595a FGR; settings: at 10 µM
Sequence of Tyrosine-protein kinase Fgr (Homo sapiens) (P09769 2-529 limits assumed): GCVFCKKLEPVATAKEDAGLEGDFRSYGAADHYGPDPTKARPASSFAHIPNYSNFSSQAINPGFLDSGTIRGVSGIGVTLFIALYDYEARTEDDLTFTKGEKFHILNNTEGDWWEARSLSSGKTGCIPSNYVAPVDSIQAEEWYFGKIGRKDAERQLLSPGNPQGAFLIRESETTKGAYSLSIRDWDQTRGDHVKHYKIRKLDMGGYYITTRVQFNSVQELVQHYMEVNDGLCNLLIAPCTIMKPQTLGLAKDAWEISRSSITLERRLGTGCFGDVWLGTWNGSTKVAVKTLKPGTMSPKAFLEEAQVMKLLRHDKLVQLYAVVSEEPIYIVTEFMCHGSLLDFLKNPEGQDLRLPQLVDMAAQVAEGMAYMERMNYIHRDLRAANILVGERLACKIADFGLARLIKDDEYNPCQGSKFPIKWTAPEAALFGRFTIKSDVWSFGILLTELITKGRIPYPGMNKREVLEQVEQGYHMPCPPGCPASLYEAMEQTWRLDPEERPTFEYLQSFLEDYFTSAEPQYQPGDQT

[7] = biological target: Death-associated protein kinase 1 (Homo sapiens, UniProt P53355); assay: Selectivity interaction (KinomeScan (DiscoverX)) EUB0000655a DAPK1; settings: at 10 µM
Sequence of Death-associated protein kinase 1 (P53355 whole entry, looked up): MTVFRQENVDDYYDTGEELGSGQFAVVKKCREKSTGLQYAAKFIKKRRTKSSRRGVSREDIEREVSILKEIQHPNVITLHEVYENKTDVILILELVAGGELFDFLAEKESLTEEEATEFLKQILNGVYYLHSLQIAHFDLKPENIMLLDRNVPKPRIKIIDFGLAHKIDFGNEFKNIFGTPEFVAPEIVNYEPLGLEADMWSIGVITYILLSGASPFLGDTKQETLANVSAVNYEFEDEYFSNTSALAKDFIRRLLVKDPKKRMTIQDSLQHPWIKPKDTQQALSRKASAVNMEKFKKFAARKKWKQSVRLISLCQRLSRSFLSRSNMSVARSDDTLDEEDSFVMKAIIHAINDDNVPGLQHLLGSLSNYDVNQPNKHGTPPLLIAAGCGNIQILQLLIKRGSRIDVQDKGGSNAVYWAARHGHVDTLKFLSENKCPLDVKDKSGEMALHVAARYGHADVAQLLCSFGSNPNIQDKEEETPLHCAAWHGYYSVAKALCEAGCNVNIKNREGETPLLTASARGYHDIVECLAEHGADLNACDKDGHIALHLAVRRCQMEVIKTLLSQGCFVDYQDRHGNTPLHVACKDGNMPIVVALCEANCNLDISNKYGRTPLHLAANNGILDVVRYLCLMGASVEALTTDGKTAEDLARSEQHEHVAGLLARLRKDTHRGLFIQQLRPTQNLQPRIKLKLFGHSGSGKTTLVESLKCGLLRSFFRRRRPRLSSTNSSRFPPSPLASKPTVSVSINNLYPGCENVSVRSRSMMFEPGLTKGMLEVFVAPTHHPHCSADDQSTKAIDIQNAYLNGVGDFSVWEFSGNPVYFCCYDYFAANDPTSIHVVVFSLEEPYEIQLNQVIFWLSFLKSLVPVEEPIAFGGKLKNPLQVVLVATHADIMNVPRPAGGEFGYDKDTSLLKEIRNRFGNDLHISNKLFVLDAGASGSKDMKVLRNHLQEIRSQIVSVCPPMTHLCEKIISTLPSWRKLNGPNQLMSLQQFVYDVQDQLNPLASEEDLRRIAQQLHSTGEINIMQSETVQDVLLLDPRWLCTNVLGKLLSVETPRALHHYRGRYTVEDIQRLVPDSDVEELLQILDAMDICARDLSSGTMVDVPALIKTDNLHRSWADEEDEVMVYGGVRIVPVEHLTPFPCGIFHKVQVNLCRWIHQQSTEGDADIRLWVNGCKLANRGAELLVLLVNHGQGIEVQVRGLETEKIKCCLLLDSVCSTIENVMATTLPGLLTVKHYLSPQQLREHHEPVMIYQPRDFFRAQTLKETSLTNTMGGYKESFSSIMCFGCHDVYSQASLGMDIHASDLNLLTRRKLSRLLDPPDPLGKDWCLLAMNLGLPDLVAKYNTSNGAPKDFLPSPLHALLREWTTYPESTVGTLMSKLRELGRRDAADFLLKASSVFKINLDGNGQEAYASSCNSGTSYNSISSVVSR

[8] = biological target: T1, Mitogen-activated protein kinase kinase kinase 5 (Homo sapiens) (UniProt Q99683); assay: Selectivity interaction (KinomeScan (DiscoverX)) EUB0001079a MAP3K5; settings: at 1 µM
T1 sequence (whole entry): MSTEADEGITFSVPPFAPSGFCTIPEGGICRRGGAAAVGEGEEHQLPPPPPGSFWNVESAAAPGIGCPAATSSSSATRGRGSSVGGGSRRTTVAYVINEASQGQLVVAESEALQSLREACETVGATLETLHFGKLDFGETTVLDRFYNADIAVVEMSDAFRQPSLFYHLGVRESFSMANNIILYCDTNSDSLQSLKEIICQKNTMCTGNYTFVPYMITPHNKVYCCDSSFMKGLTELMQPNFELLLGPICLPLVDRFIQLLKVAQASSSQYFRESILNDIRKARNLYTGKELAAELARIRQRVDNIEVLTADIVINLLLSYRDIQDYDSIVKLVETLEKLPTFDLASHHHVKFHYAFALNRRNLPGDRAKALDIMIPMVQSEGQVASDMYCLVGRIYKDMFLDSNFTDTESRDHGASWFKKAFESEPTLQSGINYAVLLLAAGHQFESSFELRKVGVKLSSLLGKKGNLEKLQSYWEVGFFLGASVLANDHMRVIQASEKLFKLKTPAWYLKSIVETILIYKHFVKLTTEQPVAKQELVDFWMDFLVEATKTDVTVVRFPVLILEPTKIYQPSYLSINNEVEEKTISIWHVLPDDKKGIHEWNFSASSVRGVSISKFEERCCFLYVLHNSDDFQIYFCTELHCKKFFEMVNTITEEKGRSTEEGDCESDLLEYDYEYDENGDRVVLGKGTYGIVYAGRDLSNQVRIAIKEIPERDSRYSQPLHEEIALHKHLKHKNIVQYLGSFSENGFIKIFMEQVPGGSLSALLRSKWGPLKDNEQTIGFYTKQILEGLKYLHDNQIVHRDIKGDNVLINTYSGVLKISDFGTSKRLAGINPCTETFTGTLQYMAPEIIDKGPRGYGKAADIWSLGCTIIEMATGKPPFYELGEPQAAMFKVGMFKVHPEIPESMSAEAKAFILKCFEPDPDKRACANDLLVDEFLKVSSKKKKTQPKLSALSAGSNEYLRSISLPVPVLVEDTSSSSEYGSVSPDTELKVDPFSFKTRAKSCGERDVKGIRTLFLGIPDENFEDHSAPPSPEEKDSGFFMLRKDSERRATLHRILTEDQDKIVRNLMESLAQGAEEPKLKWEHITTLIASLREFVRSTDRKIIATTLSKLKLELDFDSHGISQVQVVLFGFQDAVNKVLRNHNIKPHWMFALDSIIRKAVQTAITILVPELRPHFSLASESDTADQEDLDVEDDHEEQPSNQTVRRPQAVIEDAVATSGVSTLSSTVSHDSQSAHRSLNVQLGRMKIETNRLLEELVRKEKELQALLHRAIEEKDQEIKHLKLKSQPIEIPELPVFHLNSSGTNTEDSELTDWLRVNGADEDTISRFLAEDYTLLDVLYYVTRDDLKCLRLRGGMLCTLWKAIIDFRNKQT

[9] = biological target: Protein kinase C theta type (Homo sapiens, UniProt Q04759); assay: Selectivity interaction (KinomeScan (DiscoverX)) EUB0000618a PRKCQ; settings: at 10 µM
Sequence of Protein kinase C theta type (Q04759 whole entry, looked up): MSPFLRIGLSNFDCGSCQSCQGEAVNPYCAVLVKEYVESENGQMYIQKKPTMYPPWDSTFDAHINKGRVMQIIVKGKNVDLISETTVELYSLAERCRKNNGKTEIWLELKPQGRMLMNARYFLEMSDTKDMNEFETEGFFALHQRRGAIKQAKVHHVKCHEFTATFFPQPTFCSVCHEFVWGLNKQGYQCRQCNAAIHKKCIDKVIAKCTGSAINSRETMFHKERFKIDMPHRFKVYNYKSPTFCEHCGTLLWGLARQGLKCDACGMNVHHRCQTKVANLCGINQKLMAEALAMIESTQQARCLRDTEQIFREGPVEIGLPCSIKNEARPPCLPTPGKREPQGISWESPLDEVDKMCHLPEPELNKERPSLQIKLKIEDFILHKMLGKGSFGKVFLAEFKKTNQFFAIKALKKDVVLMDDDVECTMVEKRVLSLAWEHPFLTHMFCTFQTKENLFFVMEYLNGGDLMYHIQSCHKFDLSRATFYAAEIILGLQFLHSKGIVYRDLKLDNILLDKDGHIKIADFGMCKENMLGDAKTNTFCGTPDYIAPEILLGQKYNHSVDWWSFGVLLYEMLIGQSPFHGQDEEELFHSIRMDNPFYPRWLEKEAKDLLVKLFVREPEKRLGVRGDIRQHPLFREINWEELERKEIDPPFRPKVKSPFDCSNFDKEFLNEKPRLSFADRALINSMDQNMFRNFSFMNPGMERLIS

Sequence of Serine/threonine-protein kinase B-raf (Homo sapiens) (P15056 whole entry): as the sequence (P15056 whole entry V600E) above, with E600V counted along it

- % of control [1]: -4.02%
- % of control [2]: 46.2%
SMILES: Cn1cc(-n2cnc3c(NCc4nc5cc(Cl)c(Cl)cc5[nH]4)nc(N4CCOCC4)nc32)cn1

- % of control [3]: 100%
SMILES: CCN(CC)CCCCNc1ncc2cc(-c3cc(OC)cc(OC)c3)c(NC(=O)NC(C)(C)C)nc2n1

- % of inhibition [4]: -3.7%
- % of inhibition [5]: 1.7%
SMILES: CC[C@@H]1[C@H](F)C(=O)N[C@@H]1COc1nccc2cc(C(N)=O)c(OC)cc12 [ZIMLOVISERTIB]

SMILES: COCC(=O)NC/C=C/c1ccc2ncnc(Nc3ccc(Oc4ccc(C)nc4)c(C)c3)c2c1 [CP-724714]
- % of control [6]: 89%

SMILES: CN(C)CCOc1ccc(-c2nc(-c3ccncc3)c(-c3ccc4c(c3)CC/C4=N\O)[nH]2)cc1
- % of control [7]: 99%

SMILES: Nc1cnc(N2CCc3cc(S(=O)(=O)Nc4c(F)cc(Cl)cc4F)cc(N4CCCC4=O)c32)nc1 [TP-020n]
- % of control [8]: 83%

SMILES: O[C@H]1CC[C@H](Nc2ncc3nc(Nc4c(F)cc(F)cc4F)n([C@H]4CCOC4)c3n2)CC1
- % of control [9]: 100%
